Source: US8609067B2, “Method of measuring propulsion in lymphatic structures” (Board of Regents of the University of Texas System, priority 2006, dated 2013)

System: swine hindlimb vessel
Assay: Staining of lymph vessels with HA-NIR molecule
Assay type: in vivo
Experimental: Four, two-month old, 60 lb white Yorkshire swine (K Bar Livestock, HC 69 Box 270 Sabinal, Tex.) were imaged using protocols which were approved by the Baylor College of Medicine Institutional Animal Care and Use Committee. The animals were anesthetized, intubated, and maintained with isoflurane. Animal body temperature was maintained at 100° F. using a warming blanket. At the end of the procedure, the animals were euthanized and lymph nodes resected with fluorescence guidance.
Continuous-wave optical imaging of the fluorescent NIR dyes was performed with a custom built intensified charged-coupled device (CCD). Reynolds J S, Troy T L, and Sevick-Muraca E M. Multipixel techniques for frequency-domain photon migration imaging. Biotechnol Prog 13: 669-680, 1997, incorporated herein by reference in its entirety for all purposes. Briefly, the device had three principal components: 1) a NIR-sensitive image intensifier (model FS9910C ITT Night Vision, Roanoke, Va.); 2) a 16-bit dynamic range, frame transfer CCD camera (Roper Scientific, Tucson, Ariz.); and 3) a 785-nm laser diode (Thorlabs) used to provide the excitation light for activating ICG and hyaluronan-NIR. The 785-nm laser diode beam was expanded by using a planoconvex lens and a holographic optical diffuser such that approximately 0.08 m^2 of the swine's body was illuminated. A 785-nm holographic notch band rejection filter (model HNPF-785.0-2.0, Kaiser Optical Systems, Ann Arbor, Mich.) and an 830-nm image quality bandpass filter (model 830.0-2.0, Andover, Salem, N.H.) were placed before the 28-mm Nikkor lens (Nikon) to selectively reject the excitation light and pass the emitted 830-nm wavelength. A total of 400 to 1,000 images with 512×512 resolution and 200 ms exposure time were acquired enabling near-real time visualization of ICG trafficking. For image registration, white light images were acquired by replacing the holographic and bandpass filters with a neutral density filter and illuminating the surface of the swine with a low-power lamp. […]

For `CC1(C)C(/C=C/C=C/C=C/C=C2\N(CCCCS(=O)(=O)O)c3ccc4ccccc4c3C2(C)C)=[N+](CCCCS(=O)(=O)[O-])c2ccc3ccccc3c21` [ICG, indocyanine green], the “normalized fluorescent intensity in ROI as a function of time” value (image acquisition 6 min, swine leg lymph vessel) was “fluctuation and net reduction of intensity”, the propulsion of packets (swine hindlimb vessel, 64 μM HA-NIR, 32 μM ICG) was “observed” and the “fluorescence intensity along the length of the vessel and with time” value (three-dimensional plots, swine lymph vessels) was “varies with time and length along the vessel”.
